Data taken from patent publication US20250223281A1, “ANTIDIABETIC COMPOUNDS AND COMPOSITIONS” (REZUBIO PHARMACEUTICALS CO., LTD, priority 2022, published 2025).

Molecular target: T1, GPR40 (Homo sapiens, UniProt O14842)
T1 construct: expressed in transfected cells; host or cells: HEK293 cells stably expressing GPR40 (Hygromycin selection)
Assay: IP1 accumulation assay in HEK293 cells stably expressing GPR40
Type: cell-based
Outline: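 HEK293 cells stably expressing human GPR40 were incubated with compounds (10-point, 3-fold dilution series) for 2 h at 37 °C, then IP1 was detected by HTRF (665/615 nm ratio). Effect was normalised to DMSO blank and AMG-1638 as 100%, and EC50 was derived from dose curves.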

[1] = IP1 accumulation, HEK293 cells stably expressing GPR40, 2 hours at 37° C., % effect relative to AMG-1638, table of Biological Example 1
[2] = Tables A-1a to A-7b (structure-property relationship), obtained by methods of Biological Example 1
[3] = Table A-8 (additional examples), obtained by methods of Biological Example 1

T1 sequence (O14842 whole entry): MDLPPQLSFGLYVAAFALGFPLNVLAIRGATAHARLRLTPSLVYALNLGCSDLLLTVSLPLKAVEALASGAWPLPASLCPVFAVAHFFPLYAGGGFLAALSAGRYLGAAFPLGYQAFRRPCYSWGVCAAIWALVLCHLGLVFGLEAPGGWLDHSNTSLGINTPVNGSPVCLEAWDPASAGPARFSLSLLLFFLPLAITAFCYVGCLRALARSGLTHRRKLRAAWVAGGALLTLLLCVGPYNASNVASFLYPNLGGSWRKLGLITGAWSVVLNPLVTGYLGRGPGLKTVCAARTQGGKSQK

Row | EC50 [1] | EC50 [2] | EC50 [3] | SMILES
1 | 0.08 nM | 0.08 nM | – | COc1ccc(C(=O)N(CC(C)(C)CCn2cc(CCCCCCCCCCCCCCCCC(=O)NCCC[N+](C)(CC(=O)[O-])CC(=O)O)nn2)c2cccc(C)n2)c(N2CCC(COc3cc([C@@H](CC(=O)O)C4CC4)ccn3)CC2)c1 (stereo partly shown) [Example 133]
2 | 3600 nM | – | – | COc1ccc(F)c(-c2ccc(COc3cccc([C@@H](CC(=O)O)C4CC4)c3)cc2C(C)(C)c2cn(CCCCCCCCCC(=O)NCCN(CCC(=O)NCCN)CCC(=O)NCCN)nn2)c1 [Example 134]
3 | 3700 nM | > 3700 nM | – | COc1ccc(F)c(-c2ccc(COc3cccc([C@@H](CC(=O)O)C4CC4)c3)cc2CC(C)(C)Cc2cn(CCCCCCCCCC(=O)NCCN(CCC(=O)NCCN)CCC(=O)NCCN)nn2)c1 [Example 135]
4 | 1230 nM | – | – | COc1ccc(F)c(-c2ccc(COc3cccc([C@@H](CC(=O)O)C4CC4)c3)cc2OC(C)(C)Cn2cc(CCCCCCCCC(=O)NCCN(CCC(=O)NCCN)CCC(=O)NCCN)nn2)c1 [Example 136]
5 | 2600 nM | – | – | COc1ccc(F)c(-c2ccc(COc3cccc([C@@H](CC(=O)O)C4CC4)c3)cc2OC(C)(C)Cn2cc(CCCCCCCCCCC(=O)NCCN(CCC(=O)NCCN)CCC(=O)NCCN)nn2)c1 [Example 137]
6 | 6.87 nM | – | – | COc1ccc(F)c(-c2ccc(COc3cccc([C@@H](CC(=O)O)C4CC4)c3)cc2OC(C)(C)Cn2cc(CCCCCCCCCCCCCCC(=O)NCCN(CCC(=O)NCCN)CCC(=O)NCCN)nn2)c1 [Example 138]
7 | 8.54 nM | – | – | COc1ccc(F)c(-c2ccc(COc3cccc([C@@H](CC(=O)O)C4CC4)c3)cc2OC(C)(C)Cn2cc(CCCCCCCCCCCCCCC(=O)NCC[N+](C)(CCC(=O)NCCN)CCC(=O)NCCN)nn2)c1 [Example 139]
8 | > 10000 nM | – | – | COc1ccc(F)c(-c2ccc(COc3cccc([C@@H](CC(=O)O)C4CC4)c3)cc2OC(C)(C)Cn2cc(CCCCCCCCC(=O)NCC[N+](C)(CCC(=O)NCCN)CCC(=O)NCCN)nn2)c1 [Example 140]
9 | 1650 nM | – | – | COc1ccc(F)c(-c2ccc(COc3cccc([C@@H](CC(=O)O)C4CC4)c3)cc2OC(C)(C)Cn2cc(CCCCCCCCCCC(=O)NCC[N+](C)(CCC(=O)NCCN)CCC(=O)NCCN)nn2)c1 [Example 141]
10 | 30.7 nM | – | – | COc1ccc(F)c(-c2ccc(COc3cccc([C@@H](CC(=O)O)C4CC4)c3)cc2OC(C)(C)Cn2cc(CCCCCCCCCCCCCC(=O)NCC[N+](C)(CCC(=O)NCCN)CCC(=O)NCCN)nn2)c1 [Example 142]
11 | > 10000 nM | – | – | COc1ccc(F)c(-c2ccc(COc3cccc([C@@H](CC(=O)O)C4CC4)c3)cc2C(C)(C)c2cn(CCCCCCCCCC(=O)NCC[N+](C)(CCC(=O)NCCN)CCC(=O)NCCN)nn2)c1 [Example 143]
12 | 5170 nM | 5170 nM | – | COc1ccc(F)c(-c2ccc(COc3cccc([C@@H](CC(=O)O)C4CC4)c3)cc2CC(C)(C)Cn2cc(CCCCCCCCC(=O)NCC[N+](C)(CCC(=O)NCCN)CCC(=O)NCCN)nn2)c1 [Example 144]
13 | 0.19 nM | – | – | C[C@H](C(=O)O)[C@H](c1ccc2c(c1)O[C@@H](C1CCN(Cc3cc(-n4cc(CCCCCCCCCCCCCCCCCC(=O)NCCCN(C)CC(=O)NCCN)nn4)ccc3OC(F)(F)F)CC1)CC2)C1CC1 [Example 145]
14 | 0.12 nM | – | – | C[C@H](C(=O)O)[C@H](c1ccc2c(c1)O[C@@H](C1CCN(Cc3cc(-n4cc(CCCCCCCCCCCCCCCCCC(=O)NCCC[N+](C)(C)CC(=O)NCCN)nn4)ccc3OC(F)(F)F)CC1)CC2)C1CC1 [Example 146]
15 | 0.62 nM | – | – | COc1ccc(F)c(-c2ccc(COc3cccc([C@@H](CC(=O)O)C4CC4)c3)cc2CC(C)(C)Cn2cc(CCCCCCCCCCCCCCCCCC(=O)NCCCN(C)CC(=O)NCCN)nn2)c1 [Example 147]
16 | 0.43 nM | – | – | COc1ccc(F)c(-c2ccc(COc3cccc([C@@H](CC(=O)O)C4CC4)c3)cc2CC(C)(C)Cn2cc(CCCCCCCCCCCCCCCCCC(=O)NCCC[N+](C)(C)CC(=O)NCCN)nn2)c1 [Example 148]
17 | 0.09 nM | – | – | COc1ccc(C(=O)N(CC(C)(C)CCCCCCn2cc(CCCCCCCCCCCCCCCCCC(=O)NCCCN(C)CC(=O)NCCN)nn2)c2cccc(C)n2)c(N2CCC(COc3cc([C@@H](CC(=O)O)C4CC4)ccn3)CC2)c1 [Example 149]
18 | 0.07 nM | – | – | COc1ccc(C(=O)N(CC(C)(C)CCn2cc(CCCCCCCCCCCCCCCCCC(=O)NCCCN(C)CC(=O)NCCN)nn2)c2cccc(C)n2)c(N2CCC(COc3cc([C@@H](CC(=O)O)C4CC4)ccn3)CC2)c1 [Example 150]
19 | 0.05 nM | – | – | COc1ccc(C(=O)N(CC(C)(C)CCn2cc(CCCCCCCCCCCCCCCCCC(=O)NCCC[N+](C)(C)CC(=O)NCCN)nn2)c2cccc(C)n2)c(N2CCC(COc3cc([C@@H](CC(=O)O)C4CC4)ccn3)CC2)c1 [Example 151]
20 | 34.4 nM | – | – | COc1ccc(F)c(-c2ccc(COc3cccc([C@@H](CC(=O)O)C4CC4)c3)cc2CC(C)(C)Cn2cc(CCCCCCCCCCCCCC(=O)NCCCN(CC(=O)NCCN)CC(=O)NCCN)nn2)c1 [Example 152]

Row | EC50 [1] | EC50 [2] | EC50 [3] | SMILES
21 | 6.64 nM | – | – | COc1ccc(F)c(-c2ccc(COc3cccc([C@@H](CC(=O)O)C4CC4)c3)cc2CC(C)(C)Cn2cc(CCCCCCCCCCCCCCCC(=O)NCCCN(CC(=O)NCCN)CC(=O)NCCN)nn2)c1 [Example 153]
22 | 1.04 nM | – | – | COc1ccc(F)c(-c2ccc(COc3cccc([C@@H](CC(=O)O)C4CC4)c3)cc2CC(C)(C)Cn2cc(CCCCCCCCCCCCCCCCCC(=O)NCCCN(CC(=O)NCCN)CC(=O)NCCN)nn2)c1 [Example 154]
23 | 18.8 nM | – | – | COc1ccc(F)c(-c2ccc(COc3cccc([C@@H](CC(=O)O)C4CC4)c3)cc2CC(C)(C)Cn2cc(CCCCCCCCCCCCCC(=O)NCCC[N+](C)(CC(=O)NCCN)CC(=O)NCCN)nn2)c1 [Example 155]
24 | 2.53 nM | – | – | COc1ccc(F)c(-c2ccc(COc3cccc([C@@H](CC(=O)O)C4CC4)c3)cc2CC(C)(C)Cn2cc(CCCCCCCCCCCCCCCC(=O)NCCC[N+](C)(CC(=O)NCCN)CC(=O)NCCN)nn2)c1 [Example 156]
25 | 0.54 nM | – | – | COc1ccc(F)c(-c2ccc(COc3cccc([C@@H](CC(=O)O)C4CC4)c3)cc2CC(C)(C)Cn2cc(CCCCCCCCCCCCCCCCCC(=O)NCCC[N+](C)(CC(=O)NCCN)CC(=O)NCCN)nn2)c1 [Example 157]
26 | 8.97 nM | – | – | COc1ccc(F)c(-c2ccc(COc3cccc([C@@H](CC(=O)O)C4CC4)c3)cc2C(C)(C)Cn2cc(CCCCCCCCCCCCCCCCCC(=O)NCC[N+](C)(CCC(=O)NCCN)CCC(=O)NCCN)nn2)c1 [Example 158]
27 | > 6000 nM | – | > 6000 nM | COc1ccc(C(=O)N(CC(C)(C)CCn2cc(COCCOCCOCC(=O)NCCN(CCC(=O)NCCN)CCC(=O)NCCN)nn2)c2cccc(C)n2)c(N2CCC(COc3cc([C@@H](CC(=O)O)C4CC4)ccn3)CC2)c1 [Example 159]
28 | 2200 nM | – | 2200 nM | COc1ccc(C(=O)N(CC(C)(C)CCn2cc(COCCOCCOCCOCCOCC(=O)NCCN(CCC(=O)NCCN)CCC(=O)NCCN)nn2)c2cccc(C)n2)c(N2CCC(COc3cc([C@@H](CC(=O)O)C4CC4)ccn3)CC2)c1 [Example 161]
29 | 1250 nM | – | 1250 nM | COc1ccc(C(=O)N(CC(C)(C)CCn2cc(COCCOCCOCC(=O)NCC[N+](C)(CCC(=O)NCCN)CCC(=O)NCCN)nn2)c2cccc(C)n2)c(N2CCC(COc3cc([C@@H](CC(=O)O)C4CC4)ccn3)CC2)c1 [Example 162]
30 | > 5000 nM | – | > 5000 nM | COc1ccc(C(=O)N(CC(C)(C)CCn2cc(COCCOCCOCCOCC(=O)NCC[N+](C)(CCC(=O)NCCN)CCC(=O)NCCN)nn2)c2cccc(C)n2)c(N2CCC(COc3cc(C(CC(=O)O)C4CC4)ccn3)CC2)c1 (stereo not shown) [Example 163]
31 | 1330 nM | – | 1330 nM | COc1ccc(C(=O)N(CC(C)(C)CCn2cc(COCCOCCOCCOCCOCC(=O)NCC[N+](C)(CCC(=O)NCCN)CCC(=O)NCCN)nn2)c2cccc(C)n2)c(N2CCC(COc3cc([C@@H](CC(=O)O)C4CC4)ccn3)CC2)c1 [Example 164]
32 | > 10000 nM | – | > 10000 nM | COc1ccc(F)c(-c2ccc(COc3cccc([C@@H](CC(=O)O)C4CC4)c3)cc2CC(C)(C)Cn2cc(COCCOCCOCC(=O)NCCN(CCC(=O)NCCN)CCC(=O)NCCN)nn2)c1 [Example 165]
33 | > 10000 nM | – | > 10000 nM | COc1ccc(F)c(-c2ccc(COc3cccc([C@@H](CC(=O)O)C4CC4)c3)cc2CC(C)(C)Cn2cc(COCCOCCOCCOCC(=O)NCCN(CCC(=O)NCCN)CCC(=O)NCCN)nn2)c1 [Example 166]
34 | > 10000 nM | – | > 10000 nM | COc1ccc(F)c(-c2ccc(COc3cccc([C@@H](CC(=O)O)C4CC4)c3)cc2CC(C)(C)Cn2cc(COCCOCCOCCOCCOCC(=O)NCCN(CCC(=O)NCCN)CCC(=O)NCCN)nn2)c1 [Example 167]
35 | > 10000 nM | – | > 10000 nM | COc1ccc(F)c(-c2ccc(COc3cccc([C@@H](CC(=O)O)C4CC4)c3)cc2CC(C)(C)Cn2cc(COCCOCCOCC(=O)NCC[N+](C)(CCC(=O)NCCN)CCC(=O)NCCN)nn2)c1 [Example 168]
36 | > 10000 nM | – | > 10000 nM | COc1ccc(F)c(-c2ccc(COc3cccc([C@@H](CC(=O)O)C4CC4)c3)cc2CC(C)(C)Cn2cc(COCCOCCOCCOCC(=O)NCC[N+](C)(CCC(=O)NCCN)CCC(=O)NCCN)nn2)c1 [Example 169]
37 | 200 nM | – | > 200 nM | COc1ccc(F)c(-c2ccc(COc3cccc([C@@H](CC(=O)O)C4CC4)c3)cc2CC(C)(C)Cn2cc(COCCOCCOCCOCCOCC(=O)NCC[N+](C)(CCC(=O)NCCN)CCC(=O)NCCN)nn2)c1 [Example 170]
38 | > 10000 nM | – | > 10000 nM | C[C@H](C(=O)O)[C@H](c1ccc2c(c1)O[C@@H](C1CCN(Cc3cc(-n4cc(COCCOCCOCC(=O)NCCN(CCC(=O)NCCN)CCC(=O)NCCN)nn4)ccc3OC(F)(F)F)CC1)CC2)C1CC1 [Example 171]
39 | 5240 nM | – | 5240 nM | C[C@H](C(=O)O)[C@H](c1ccc2c(c1)O[C@@H](C1CCN(Cc3cc(-n4cc(COCCOCCOCCOCC(=O)NCCN(CCC(=O)NCCN)CCC(=O)NCCN)nn4)ccc3OC(F)(F)F)CC1)CC2)C1CC1 [Example 172]
